Publication PMC8997995, “Amphiphilic Cell-Penetrating Peptides Containing Natural and Unnatural Amino Acids as Drug Delivery Agents” (Cells, 2022)
Read-outs that look alike come from different tables or passages of the source. Non-standard residues stand in square brackets, D forms with d. Residues, ends and D or L forms follow the SMILES beside them. *: point of attachment. 5FAM = O=C1OC2(c3ccc(O)cc3Oc3cc(O)ccc32)c2ccc(C(=O)*)cc21; Dip = N[C@H](C(=O)O)C(c1ccccc1)c1ccccc1

What was measured:
CCRF-CEM cells [1] = assay: In vitro cytotoxicity (MTS) in CCRF-CEM cells; format: cell-based, human; conditions: for reduction of cell proliferation: 25 µM, MTS, n = 3
Description: (§1) SK-OV-3, CCRF-CEM, HEK-293, MDA-MB-468, LLC-PK1, and MES-SA were used to determine the cytotoxicity of the synthesized linear and cyclic peptides. About 5000, 10,000, and 50,000 cells were seeded for SK-OV-3, HEK-293, and CCRF-CEM cells, respectively, in 0.1 mL of medium per well of 96-well plates. An appropriate medium was used for each cell line (SK-OV-3: McCoy’s 5A with L-glutamine containing fetal bovine serum (FBS) (10%) and penicillin or streptomycin (1%); CCRF-CEM: RPMI-1640 medium with L-glutamine and sodium bicarbonate containing FBS (10%) and penicillin or streptomycin (1%); MDA-MB-468 cells: DMEM/F12 (1:1) (1×) with L-glutamine and 15 mM HEPES containing FBS (10%) and penicillin or streptomycin (1%); LLC-PK1 cells: Dulbecco’s Modified Eagle’s Medium with 4500 mg/L glucose, L-glutamine and sodium bicarbonate, without sodium pyruvate liquid containing FBS (10%) and penicillin or streptomycin (1%); MES-SA cells: consisting of half SK-OV-3 and half CCRF-CEM media; and HEK-293 cells: Minimum Essential Medium Eagle with Earle’s salts and sodium bicarbonate, without L-glutamine containing FBS (10%) and penicillin or streptomycin (1%)). Then, 20 µL of peptides containing 5% DMSO in water were added to each well.
(§2) Adhesive cells were detached with 0.05% trypsin/EDTA after 15 min. The suspended cells were seeded in the medium 24 h prior to the experiment according to the previously reported procedure. The medium was changed before adding the peptides for adherent cells. Each concentration 5, 10, 25, 50, and 166 µM (containing 0.8% DMSO) had triplicate wells to minimize possible errors. […] The cell viability was measured by utilizing Multi-Mode Microplate Reader (SpectraMax M5 model, Molecular Devices, San Jose, CA, USA) after adding 20 µL of the MTS reagent to each well and incubating for 3 additional hours. […] The protocol manager was selected “endpoint” on the spectrophotometer’s software (SoftMax Pro 7). The 96-well plates were inserted inside spectrophotometer, and the data were acquired. The percentage of cell viability was calculated using the following equation:(1) =(Average OD values of samples treated with the compound /Average OD values of no treatment samples )∗100

[2] = set-up: method as in earlier work; conditions: cited from earlier work
Excerpt: In continuation of our efforts to design cyclic CPPs with improved molecular transporter properties, we report here the design and synthesis of a new class of CPPs, containing R, diphenylalanine (Dip), and W residues (Figure 1), the evaluation of their cytotoxicity, cellular uptake, nanostructure formation, and mechanism of actions.

[3] = Circular dichroism, estimate of secondary structure; format: physicochemical; conditions: CD, 100 µM peptide in water, principal component regression analysis
Description: Samples were prepared in 100 µM concentration dissolved in water only. The cuvette with the 1 mm path length was used for all the measurements. The circular dichroism analysis was performed with a J-1500 Jasco spectrophotometer using nitrogen gas and PM-539 detector. Parameters were selected as follows: data interval 0.1 nm, data points 701, data pitch 0.1 nm, CD scale 200 mdeg/0.1 dOD, FL scale 200 mdeg/0.1 dOD, D.I.T 2 s, bandwidth 1 nm, cell length 1 mm, start mode immediately, scanning mode continuous, scanning speed 50 nm/min, shutter control auto, and N2 flowmeter manual. An average of three readings between 190 and 260 nm were collected for each sample. The analysis was carried out using one of Multivariate Regression Analyses, which is Principal Component Regression (PCR) with a basis set containing 26 proteins reference under the following conditions: standardization of result 100, replaced negative value to zero, and rejection percentage of 1%.

CCRF-CEM cells [4] = assay: Cellular uptake by flow cytometry in CCRF-CEM cells; format: cell-based, human; conditions: peptide 10 µM, 3 h, no FBS, flow cytometry FITC, n = 3
Description: CCRF-CEM and SK-OV-3 cells were used to measure the cellular uptake of a fluorescent-labeled phosphopeptide (F’-GpYEEI) (2 µM), stavudine (F’-d4T) (2 µM) lamivudine (F’-3TC) (1–2 µM), emtricitabine (F’-FTC) (2 µM), and siRNA (F’-siRNA) (36 nM) with the least toxic concentration for each linear and the cyclic peptide (10 µM). The uptake was measured in the presence and absence of the peptides. The SK-OV-3 (0.5 million) and CCRF-CEM (a million) cells were incubated in each well of 6-well plates with the synthesized peptide and the fluorescent-labeled compound in one well. Another well contained the fluorescent-labeled compound alone for 3 h in an incubator (37 °C in a humidified atmosphere of 5% CO2). […] For more details, please refer back to the cytotoxicity method described above.
The cells were transferred to FACS analysis tubes after being washed with phosphate-buffered saline (PBS). The cells were centrifuged 2500 RPM for 5 min with Fisher Scientific accuSpin Micro 17 to precipitate the cells and to allow replacing the supernatant. The cells were then vortexed with Nerl Blood Bank Saline pH 7–7.2 (flow cytometry buffer) and transferred to the tube through a sterile cell strainer 40 µm Nylon Mesh. Finally, the cells were resuspended in flow cytometry buffer and analyzed by flow cytometry (FACSVerse model, Becton Dickinson, San Jose, CA, USA) using the FITC channel and the BD FACSuite software. The device was washed before each experiment, and the flow rate was set at medium. Finally, the cells were analyzed by using FITC channel […] argon laser for the excitation and the emitted 519 nm fluorescence for detection. The data presented was based on the FITC-A mean intensity signal for 10,000 cells collected. All assays were performed in triplicates. Results were evaluated to determine whether the peptides are facilitating the fluorescence compound to cross the membrane.
To determine the mechanism of the cellular uptake, F’-[K(DipR)5] or the physical mixture of the F’-GpYEEI and [DipR]5 were used to measure the fluorescence in the treated CCRF-CEM cells. F’-[K(DipR)5] (5 or 10 µM) or the physical mixture of the F’-GpYEEI (2 µM) and [DipR]5 (5 or 10 µM) were incubated with CCRF-CEM cells over 3 h. After each incubation, the medium containing the peptide and cells was removed. The same protocol as the cellular uptake study was used to prepare the cells as described above. Finally, the cells were resuspended in the buffer and analyzed by flow cytometry using the FITC channel and the BD FACSuite software. The data presented was based on the percentage of FITC-A mean intensity signal for 10,000 cells collected. All assays were performed in triplicates.

[5] = Transmission electron microscopy, self-assembly; format: physicochemical; conditions: TEM, 30 μM, dried on grid overnight, not stained
Description: Transmission electron microscopy (TEM) was done on a LVEM 5D Microscope model (Delong instruments, Brno, Czech Republic) samples were prepared on an Ultrathin Carbon Film on Lacey Carbon Support Film with 400 mesh copper from Ted Pella. Dilute solutions of 30 μM concentration were used for the TEM analysis. Samples were dropped on grids, evaporated overnight, and not stained. They were incubated for approximately 2 h after thawing from a freezer (0 to −18 °C). Samples were air-dried, and images were obtained with a LVEM5 (Delong Instruments, US) 5 keV field emission gun. The camera was Zyla 5.5 Scientific CMOS with specifications of exposure 50–200 [ms], pixel readout 200 MHz—lowest noise, dynamic range 12-bit (low noise), and summing 1.

SK-OV-3 cells = format: cell-based, human; conditions: MTS, n = 3
Description: as §1, §2

HEK-293 cells = format: cell-based, human; conditions: HEK-293, 25 µM, 24 h incubation, MTS
Description: SK-OV-3, CCRF-CEM, HEK-293, MDA-MB-468, LLC-PK1, and MES-SA were used to determine the cytotoxicity of the synthesized linear and cyclic peptides. About 5000, 10,000, and 50,000 cells were seeded for SK-OV-3, HEK-293, and CCRF-CEM cells, respectively, in 0.1 mL of medium per well of 96-well plates. […]
Adhesive cells were detached with 0.05% trypsin/EDTA after 15 min. […] The cell viability was measured by utilizing Multi-Mode Microplate Reader (SpectraMax M5 model, Molecular Devices, San Jose, CA, USA) after adding 20 µL of the MTS reagent to each well and incubating for 3 additional hours. […] The percentage of cell viability was calculated using the following equation:(1) =(Average OD values of samples treated with the compound /Average OD values of no treatment samples )∗100

Other (random coil) [3] [%]	Turn [3] [%]	α-helix [3] [%]	β-sheet [3] [%]	SMILES	also measured
				N=C(N)NCCC[C@@H]1NC(=O)[C@H](C(c2ccccc2)c2ccccc2)NC(=O)[C@H](CCCNC(=N)N)NC(=O)[C@H](C(c2ccccc2)c2ccccc2)NC(=O)[C@H](CCCNC(=N)N)NC(=O)[C@H](C(c2ccccc2)c2ccccc2)NC(=O)[C@H](CCCNC(=N)N)NC(=O)[C@H](C(c2ccccc2)c2ccccc2)NC(=O)[C@H](CCCNC(=N)N)NC(=O)[C@H](C(c2ccccc2)c2ccccc2)NC(=O)[C@H](CCCCNC(=O)c2ccc3c(c2)C(=O)OC32c3ccc(O)cc3Oc3cc(O)ccc32)NC1=O [F’-[K(DipR)5]] (cyclo([Dip]R[Dip]R[Dip]R[Dip]R[Dip]RK(5FAM)))	cytotoxicity (CCRF-CEM cells [1]; 10 µM, 3 h and 24 h incubations): minimal cytotoxicity; cytotoxicity (CCRF-CEM cells [1]; 166 µM, 3 h incubation): no cytotoxicity
				N[C@H](C(=O)O)C(c1ccccc1)c1ccccc1 [Dip, 3,3-diphenyl-L-alanine]	Log P (partition coefficient) [2]: 2.93
				N[C@@H](Cc1c[nH]c2ccccc12)C(=O)O [W, tryptophan]	Log P (partition coefficient) [2]: 1.82
38.4	17.0	13.1	31.5	N=C(N)NCCC[C@@H]1NC(=O)[C@H](Cc2c[nH]c3ccccc23)NC(=O)[C@H](CCCNC(=N)N)NC(=O)[C@H](C(c2ccccc2)c2ccccc2)NC(=O)[C@H](CCCNC(=N)N)NC(=O)[C@H](C(c2ccccc2)c2ccccc2)NC(=O)[C@H](CCCNC(=N)N)NC(=O)[C@H](C(c2ccccc2)c2ccccc2)NC(=O)[C@H](CCCNC(=N)N)NC(=O)[C@H](Cc2c[nH]c3ccccc23)NC1=O [[(DipR)3(WR)2]] (cyclo([Dip]R[Dip]R[Dip]RWRWR))	
47.8	12.8	20.8	18.6	N=C(N)NCCC[C@@H]1NC(=O)[C@H](Cc2c[nH]c3ccccc23)NC(=O)[C@H](CCCNC(=N)N)NC(=O)[C@H](Cc2c[nH]c3ccccc23)NC(=O)[C@H](CCCNC(=N)N)NC(=O)[C@H](C(c2ccccc2)c2ccccc2)NC(=O)[C@H](CCCNC(=N)N)NC(=O)[C@H](C(c2ccccc2)c2ccccc2)NC(=O)[C@H](CCCNC(=N)N)NC(=O)[C@H](Cc2c[nH]c3ccccc23)NC1=O [[(DipR)2(WR)3]] (cyclo([Dip]R[Dip]RWRWRWR))	increase of cellular uptake of F’-GpYEEI vs cargo alone (CCRF-CEM cells [4]; F’-GpYEEI 2 µM): approximately 7 fold; morphology of self-assembled structures [5]: star-shaped particles; size of self-assembled structures [5]: 1000–2000 nm
40.5	13.8	28.9	16.8	N=C(N)NCCC[C@@H]1NC(=O)[C@H](Cc2c[nH]c3ccccc23)NC(=O)[C@H](CCCNC(=N)N)NC(=O)[C@H](Cc2c[nH]c3ccccc23)NC(=O)[C@H](CCCNC(=N)N)NC(=O)[C@H](C(c2ccccc2)c2ccccc2)NC(=O)[C@H](CCCNC(=N)N)NC(=O)[C@H](Cc2c[nH]c3ccccc23)NC(=O)[C@H](CCCNC(=N)N)NC(=O)[C@H](Cc2c[nH]c3ccccc23)NC1=O [[(DipR)(WR)4]]	reduction of cell proliferation (CCRF-CEM cells [1]; 24 h incubation): 47%; reduction of cell proliferation (CCRF-CEM cells [1]; 72 h incubation): 32%; reduction of cell proliferation (SK-OV-3 cells; SK-OV-3, 10 µM, 72 h incubation): 40%; reduction of cell proliferation (SK-OV-3 cells; SK-OV-3, 25 µM, 24 h incubation): 76%; reduction of cell proliferation (HEK-293 cells): 8%; increase of cellular uptake of F’-d4T vs cargo alone (CCRF-CEM cells [4]; F’-d4T 2 µM): 12 fold; morphology of self-assembled structures [5]: nanofiber structure; size of self-assembled structures [5]: ~50 nm
39.7	16.8	8.6	34.9	N=C(N)NCCC[C@@H]1NC(=O)[C@H](Cc2c[nH]c3ccccc23)NC(=O)[C@H](CCCNC(=N)N)NC(=O)[C@H](C(c2ccccc2)c2ccccc2)NC(=O)[C@H](CCCNC(=N)N)NC(=O)[C@H](C(c2ccccc2)c2ccccc2)NC(=O)[C@H](CCCNC(=N)N)NC(=O)[C@H](C(c2ccccc2)c2ccccc2)NC(=O)[C@H](CCCNC(=N)N)NC(=O)[C@H](C(c2ccccc2)c2ccccc2)NC1=O [[(DipR)4(WR)]] (cyclo([Dip]R[Dip]R[Dip]R[Dip]RWR))	
